This passage reports IC50 results from US20080249130A1, “Gut microsomal triglyceride transport protein inhibitors” (Sirtris Pharmaceuticals, Inc., priority 2007, published 2008).

Where only a bound is given, the exact number is not on record here.

This assay concerns secretion of ApoB by HepG2 cells. Nature of the assay: ApoB secretion inhibition assay in HepG2 cells (ApoB ELISA). It is filed as cell-based, human. The conditions noted are these: Homo sapiens, HepG2, Table 6, assay of Example 2; read-out: IC50 ApoB Assay. As to the method: The ability of the compounds of the present invention to inhibit the secretion of ApoB can be determined using the following cell-based assay, which measures the secretion of ApoB by HepG2 cells. ApoB has two possible metabolic fates: entrance into the lipoprotein assembly pathway within the lumen of the endoplasmic reticulum (ER), or degradation in the cytoplasm by the ubiquitin-dependent proteasome. The destiny of ApoB is determined by the relative availability of individual lipids, which is controlled by MTP (Davis, Biochim. Biophys. Acta, 1999, 1440, 1-31).
HepG2 cells (ATCC, HB-8065) are seeded in 96-well plates in DMEM with 10% FBS+pen/strep at a density of 1×10^5 cells/well (100 μl /well). Twenty-four hours after seeding, the plate is aspirated and the media changed to DMEM with 1% BSA and pen/strep, and the cells are serum-starved for 24 hours. After 24 hour serum-starvation, the plate is aspirated again and the cells are then treated for 24 hours with or without compound in DMEM with 1% BSA, 0.3 mM OA (OA complexed to BSA at a 2:1 ratio) and pen/strep. The final concentration of DMSO in the assay (from compound and control) is 0.1%. After 24 hour treatment, conditioned media is collected in an empty 96-well plate.
Cellular viability is measured using the cell permeable dye, AlamarBlue™. This dye undergoes electron reduction in viable cells but not dead cells. The reduced dye product gives a fluorescent signal which can be monitored with a fluorescence plate reader (excitation 545 nm and emission 575 nm). The amount of fluorescence generated in a given well is proportional to the number of viable cells. After collection, the 96-well plate is re-fed with 100 μl media (DMEM with 10% FBS) and 10 μl Alamar Blue™ per well, incubated for 2 hours and then read in a fluorescence plate reader.
ApoB secretion from HepG2 cells is quantitated by testing the conditioned media at […] using an ApoB ELISA kit (ALerCHEK) according to the manufacturer's instructions. The ELISA assay for ApoB is performed as follows: a polyclonal antibody against human ApoB (Chemicon) is diluted 1:1000 in carbonate-bicarbonate buffer and 100 μl are added to each well of a 96-well plate (NUNC). After 5 hours incubation at room temperature, the antibody solution is removed and wells are washed four times with PBS/0.05% TweenD 20 (Cayman Chemical Co.). Non-specific sites on the plastic plate are blocked by incubating wells for 1 to 1.5 hours in a solution of 0.5% BSA and 0.1% TweenD 20 made in PBS. One hundred microliters of a 1:20 dilution of growth medium from the HepG2 cells (made in 0.004% TweenD 20/1% BSA in PBS) is added to each well and incubated for 3 hours at room temperature. Wells are aspirated and washed four times (0.05% TweenD 20 in PBS) prior to adding 100 μl of a 1:1000 dilution (5 μg/ml) of the secondary antibody, mouse anti-human ApoB (Chemicon). After 2 hours incubation at room temperature, this solution is aspirated and the wells are again washed 4 times as above. One hundred microliters of peroxidase-conjugated affinity purified goat anti-mouse IgG (H+L) (Jackson ImmunoResearch Laboratories) (1:10,000 dilution in PBS/1% BSA/0.1% TweenD 20) is then added to each well and incubated for 1 hour at room temperature. After aspirating, the wells are washed 4 times as above and 50 μl of 1-step Ultra TMB ELISA reagent (Pierce) is added to each well and incubated for 5 minutes. The reaction is stopped by the addition of 50 μl of 2 NH2SO4 and absorbance of each well is read at 450 nm.
As for `CC(C)(C)c1ccc(-c2ccccc2C(=O)Nc2ccc3nc(C(=O)N[C@H](C(=O)NCc4ccccc4)c4ccccc4)sc3c2)cc1` [Compound 6], the IC50 was determined as 0.004 µM.

As to `CCCCCNC(=O)[C@@H](NC(=O)c1cccc(-c2csc(NC(=O)c3ccccc3-c3ccc(C(C)(C)C)cc3)n2)c1)c1ccccc1` [Compound 11], the IC50 came out at 0.296 µM.

Take `CN(Cc1ccc(F)cc1)C(=O)[C@@H](NC(=O)c1cccc(-c2csc(NC(=O)c3ccccc3-c3ccc(C(C)(C)C)cc3)n2)c1)c1ccccc1` [Compound 13]: the IC50 was found to be 0.238 µM.

Consider `CCCCCNC(=O)[C@@H](NC(=O)c1ccccc1-c1csc(NC(=O)c2ccccc2-c2ccc(C(C)(C)C)cc2)n1)c1ccccc1` [Compound 15], for which the IC50 was over 10 µM.

Regarding `CC(C)(C)c1ccc(-c2ccccc2C(=O)Nc2nc(-c3ccccc3C(=O)N[C@H](C(=O)N3CCCC3)c3ccccc3)cs2)cc1` [Compound 16, (S)-4′-tert-butyl-N-(4-(2-(2-oxo-1-phenyl-2-(pyrrolidin-1-yl)ethylcarbamoyl)phenyl)thiazol-2-yl)biphenyl-2-carboxamide], the half-maximal inhibitory concentration (IC50) was determined as 1.1 µM.

Turning to `CN(Cc1ccc(F)cc1)C(=O)[C@@H](NC(=O)c1ccccc1-c1csc(NC(=O)c2ccccc2-c2ccc(C(C)(C)C)cc2)n1)c1ccccc1` [Compound 17], the IC50 is over 10 µM.

For the molecule `CC(C)(C)c1ccc(-c2ccccc2C(=O)Nc2ccc3nc(C(=O)O)sc3c2)cc1` [Compound 18], the IC50 was determined as 2.7 µM.

Take `CN(Cc1ccc(F)cc1)C(=O)[C@@H](NC(=O)c1nc2ccc(N)cc2s1)c1ccccc1` [Compound 19]: the IC50 is over 10 µM.

On to `CC(C)(C)c1ccc(-c2ccccc2C(=O)NCC23CCC(C(=O)N[C@H](C(=O)N4CCCC4)c4ccccc4)(CC2)CC3)cc1` [Compound 20], for which the IC50 was 0.095 µM.

On to `CC(C)(C)c1ccc(-c2ccccc2C(=O)NCC23CCC(C(=O)N[C@H](C(=O)N4CCC(F)(F)C4)c4ccccc4)(CC2)CC3)cc1` [Compound 21], for which the IC50 was 0.19 µM.

With `CC(C)(C)c1ccc(-c2ccccc2C(=O)NCC23CCC(C(=O)N[C@H](C(=O)N4Cc5ccccc5C4)c4ccccc4)(CC2)CC3)cc1` [Compound 22], the 50% inhibitory concentration (IC50) is 0.253 µM.

For `CC(C)(C)c1ccc(-c2ccccc2C(=O)Nc2ccc3nc(C(=O)N[C@H](C(=O)N4Cc5ccccc5C4)c4ccccc4)sc3c2)cc1` [Compound 23], the IC50 came out at 0.0216 µM.

In the case of `Cc1noc(-c2ccccc2C(=O)Nc2ccc3nc(C(=O)N[C@H](C(=O)N(C)Cc4ccc(F)cc4)c4ccccc4)sc3c2)n1` [Compound 25], the 50% inhibitory concentration (IC50) came out at 0.0594 µM.

On to `CC(C)(C)c1ccc(-c2ccccc2C(=O)Nc2nc(-c3cccc(C(=O)N[C@H](C(=O)N4CCC(F)(F)C4)c4ccccc4)c3)cs2)cc1` [Compound 26], for which the IC50 came to 0.0772 µM.

Turning to `CC(C)(C)c1ccc(-c2ccccc2C(=O)Nc2nc(-c3cccc(C(=O)N[C@H](C(=O)N4Cc5ccccc5C4)c4ccccc4)c3)cs2)cc1` [Compound 27], the half-maximal inhibitory concentration (IC50) is 0.318 µM.

As to `CN(Cc1ccc(F)cc1)C(=O)[C@@H](NC(=O)c1nc2ccc(NC(=O)c3ccccc3-c3cccnc3)cc2s1)c1ccccc1` [Compound 28], the IC50 was 0.158 µM.

In the case of `CN(Cc1ccc(F)cc1)C(=O)[C@@H](NC(=O)c1nc2ccc(NC(=O)c3ccccc3-n3cnnn3)cc2s1)c1ccccc1` [Compound 29], the half-inhibitory concentration (IC50) came to 4.2 µM.

For the molecule `CN(Cc1ccc(F)cc1)C(=O)[C@@H](NC(=O)c1nc2ccc(NC(=O)c3ccccc3-n3cccn3)cc2s1)c1ccccc1` [Compound 31], the concentration for half-maximal inhibition (IC50) is 0.0931 µM.

As to `CC(C)(C)c1ccc(-c2ccccc2C(=O)Nc2ccc3nc(C(=O)N[C@@H](C(=O)N4CCCC4)c4ccccc4)sc3c2)cc1` [Compound 34], the IC50 was determined as 0.0348 µM.

As for `CN(Cc1ccc(F)cc1)C(=O)[C@H](NC(=O)c1nc2ccc(NC(=O)c3ccccc3-c3ccc(C(C)(C)C)cc3)cc2s1)c1ccccc1` [Compound 35], the IC50 amounted to 0.0098 µM.

Regarding `CN(Cc1ccc(F)cc1)C(=O)[C@@H](NC(=O)c1ccc(-c2csc(NC(=O)c3ccccc3-c3ccc(C(C)(C)C)cc3)n2)cc1)c1ccccc1` [Compound 37], the 50% inhibitory concentration (IC50) stood at 0.0353 µM.
